Data from US20210198313A1, “METHOD OF PRODUCING IMIDAZOLE DIPEPTIDES” (Tokai Bussan Co., Ltd., priority 2019, published 2021).

Assays:
[1] = cited from earlier work
[2] = Titration of 0.1 M aqueous solutions with 0.1 N sulfuric acid and 0.1 N sodium hydroxide to determine dissociation constants and charge state; format: physicochemical
From the text: In view of the difference between the adsorption behaviors of imidazole dipeptides, including anserine and carnosine, and creatinine on a strongly acidic cation exchange resin, each electrical dissociation behavior of the compounds with respect to pH values was experimentally measured by the titration method as mentioned below. The terms “pK” and “pI” are the dissociation constant and the isoelectric point, respectively.
The 0.1 M aqueous solutions of L-anserine, L-carnosine and creatinine were prepared and the titration curves were generated with 0.1 N sulfuric acid and 0.1 N sodium hydroxide according to known methods. From each titration curve, pK1, pKR and pK2 were determined.
In Table 1, with respect to anserine and carnosine, pK1 represents the dissociation of carboxyl group, pKR represents the dissociation of imidazole group, and pK2 represents the dissociation of amino group. With respect to creatinine, pKR represents the dissociation of imidazole group.
Based on the measured results, the state of the charge of anserine, carnosine and creatinine at each pH value is shown in FIG. 1.

[3] = Dissociation constants disclosed in published references; format: physicochemical; conditions: converted from literature pKb 9.20
From the text: For example, Bate-Smith (Bate-Smith, E. C., J. Physiol. (London) 92, 336 (1938)) discloses the results that pK2 of carnosine was 6.83, and Doutsch et al. (Dutch, A., Eggleton, P., Biochem. J. 32, 209 (1938)), discloses the results that pK2 of anserin was 7.04. In these references, pK2 means the dissociation constant of imidazole group and corresponds to pKR in Table 1. […] If converted to pKR, it is 4.8. Thus, each pKR for anserine, carnosine and creatinine in Table 1 was well consistent with the data described in the references.

[4] = 0.1 M aqueous solution, titration curve

SMILES	pK2 (dissociation constant of imidazole group, corresponds to pKR in Table 1) ([1]; literature (Bate-Smith 1938; Deutsch and Eggleton 1938))	pI (isoelectric point) [2, 4]	pK1 (dissociation of carboxyl group) [2, 4]	pK2 (dissociation of amino group) [2, 4]	pKR (dissociation of imidazole group) [2, 4]	positive charge ([2]; pH 5, FIG. 1) [valent]	positive charge ([2]; pH 7, FIG. 1) [valent]	positive charge ([2]; pH 8, FIG. 1) [valent]	pKb ([1]; literature (Eadie and Hunter 1926))	pKR converted from pKb [3]
NCCC(=O)N[C@@H](Cc1c[nH]cn1)C(=O)O [Carnosine, β-alanyl histidine]	6.83	8.3	2.8	9.8	6.8	1	0.5	0.1	–	–
CN1CC(=O)NC1=N [Creatinine, creatinine]	–	–	–	–	–	–	–	–	9.20	4.8
